# How the values were obtained:
# [1] = Total Plasma Volume = 2.28 Liters; refer to 2000 Report by Dr. Lobe; cited from earlier work
# [2] = Plasma concentration in vivo after transfusion of one unit of 2,3-DPG enhanced cells; settings: Total Plasma Volume = 2.28 Liters
# Description: A Y-type tube set is assembled is assembled as shown in FIG. 2 and connected to a unit of RBCs. The tube set includes a 0.2 μm filter. RBC enhancement composition (Rejuvesol® Solution) is transferred to the RBCs via a vented spike to form a treated blood composition. The treated blood composition is mixed and incubated, forming an incubated blood composition. The treated blood composition is centrifuged to form a concentration of RBC and a supernatant. The supernatant is transferred to an empty waste bag, and the concentration of RBCs was resuspended in 100 mL additive solution that was transferred from a second transfer bag.
# A Y-type tube set is assembled as shown in FIG. 2 and connected to a unit of 250 mL RBCs. 100 mL additive solution, comprising saline, was transferred to the RBCs. The tube set includes a 0.2 μm filter. 50 mL RBC enhancement composition (Rejuvesol® Solution) was transferred to the RBCs via a vented spike to form a treated blood composition. The treated blood composition was mixed and incubated, forming an incubated blood composition. The incubated blood composition was then diluted with 200 mL wash solution from a first transfer bag containing 200 mL wash solution, forming a diluted blood composition. The diluted blood composition was centrifuged to form a concentration of RBCs and a supernatant. The supernatant was transferred to the now empty first transfer bag, and the concentration of RBCs was resuspended in 100 mL additive solution, which was transferred from a second transfer bag.
# Blood processed according to Examples 1 and 2 are analyzed for concentrations of rejuvenation materials in the final processed RBC suspensions, with the following results.
"Plasma Concentration in vivo after transfusion of one unit, Concept 2, assume 85% Removal [2] [µM]","Plasma Concentration in vivo after transfusion of one unit, Concept 1, assumes 75% Removal [2] [µM]",Structure (SMILES),"Plasma Concentration in vivo after transfusion of one unit, Without Further Processing [1] [µM]"
16,27,Nc1ncnc2nc[nH]c12 [Adenine],110
330,550,O=c1[nH]cnc2nc[nH]c12 [Hypoxanthine],2190
330,550,OC[C@H]1O[C@@H](n2cnc3c(O)ncnc32)[C@H](O)[C@@H]1O [Inosine],2190

# The next lines start with the compound.
Structure (SMILES),"Plasma Concentration in vivo after transfusion of one unit, Concept 2, assume 85% Removal [2] [µM]","Plasma Concentration in vivo after transfusion of one unit, Concept 1, assumes 75% Removal [2] [µM]","Plasma Concentration in vivo after transfusion of one unit, Without Further Processing [1] [µM]"
CC(O)C(=O)O (stereo not drawn) [Lactate],330,550,2190
CC(=O)C(=O)O [Pyruvate],330,550,2190
O=c1[nH]c(=O)c2[nH]c(=O)[nH]c2[nH]1 [Uric Acid],330,550,2190

# Reference: patent US20150366911A1, “METHODS FOR REJUVENATING RED BLOOD CELLS” (Biomet Biologics, LLC, priority 2013, published 2015)
